Test results reported in patent US4268664A, “Process for the preparation of 1-N-isoseryl- or 1-N-(L-4-amino-2-hydroxybutyryl)-3',4'-dideoxykanamycin B and intermediates thereof” (Zaidan Hojin Biseibutsu Kagaku Kenkyu Kai, priority 1978, dated 1981).
≈ marks a conversion by molar mass, not a printed value. Like-named read-outs stand apart in the source and are kept apart here.

What was measured:
[1] = system: various microorganisms; experiment: antimicrobial activity (in words); assay type: cell-based
Method: (§1) The minimum inhibitory concentrations (mcg/ml) of the compounds tested against various microorganisms were determined according to a serial dilution method using nutrient agar medium at 37° C., the estimation being effected after 20 hours-incubation.

[2] = system: drug-resistant microbial strains including Pseudomonas aeruginosa; conditions: cited from earlier work
[3] = system: E. coli (M) Cast. & Chalm.NIHJ JC-2; experiment: Antibacterial activity (MIC), serial dilution method; assay type: cell-based; conditions: Escherichia coli, NIHJJC2; nutrient agar, 37° C., 20 hours; read-out: MIC
[4] = system: Ps. aeruginosa NC-5; experiment: as above; assay type: cell-based; conditions: Pseudomonas aeruginosa, NC5; nutrient agar, 37° C., 20 hours; read-out: MIC
[5] = system: E. coli A-0001; experiment: as above; assay type: cell-based; conditions: Escherichia coli, A0001; nutrient agar, 37° C., 20 hours
[6] = system: E. coli JR 66/W 677(A-20683); experiment: as above; assay type: cell-based; conditions: Escherichia coli; nutrient agar, 37° C., 20 hours; read-out: MIC
[7] = system: Ps. aeruginosa M-0032; experiment: as above; assay type: cell-based; conditions: Pseudomonas aeruginosa, M0032; nutrient agar, 37° C., 20 hours; read-out: MIC
[8] = system: Sal. typhimurium LT-2; experiment: as above; assay type: cell-based; conditions: Salmonella enterica, nutrient agar, 37° C., 20 hours, read-out: MIC
[9] = system: Serra. marcescens No. 2; experiment: as above; assay type: cell-based; conditions: Serratia marcescens, nutrient agar, 37° C., 20 hours
[10] = system: Serra. marcescens No. 1; experiment: as above; assay type: cell-based; conditions: Serratia marcescens, nutrient agar, 37° C., 20 hours
[11] = system: Ps. aeruginosa E-2; experiment: as above; assay type: cell-based; conditions: Pseudomonas aeruginosa, E2; nutrient agar, 37° C., 20 hours; read-out: MIC
[12] = system: Kleb. pneumoniae; experiment: as above; assay type: cell-based; conditions: Klebsiella pneumoniae
[13] = system: Pro. morganii K-ono; experiment: as above; assay type: cell-based; conditions: Morganella morganii; nutrient agar, 37° C., 20 hours
[14] = system: Kleb. pneumoniae 22# 3038 (A-20680); experiment: as above; assay type: cell-based; conditions: Klebsiella pneumoniae
[15] = system: B. subtilis ATCC 6633; experiment: as above; assay type: cell-based; conditions: Bacillus subtilis, ATCC6633; nutrient agar, 37° C., 20 hours
[16] = system: Sal. enteritidis No. 11(T-okai); experiment: as above; assay type: cell-based; conditions: Salmonella enterica, nutrient agar, 37° C., 20 hours, read-out: MIC
[17] = system: Pro. rettgelli J-0026; experiment: as above; assay type: cell-based; conditions: nutrient agar, 37° C., 20 hours; read-out: MIC
[18] = system: Str. faecalis ATCC 8043; experiment: as above; assay type: cell-based; conditions: Enterococcus faecalis, ATCC8043; nutrient agar, 37° C., 20 hours
[19] = system: Sta. epidermidis ATCC 14990; experiment: as above; assay type: cell-based; conditions: Staphylococcus epidermidis, ATCC14990; nutrient agar, 37° C., 20 hours
[20] = system: E. coli A-0003; experiment: as above; assay type: cell-based; conditions: Escherichia coli, A0003; nutrient agar, 37° C., 20 hours
[21] = system: Sta. aureus Rosenbach FDA 209-P JC-1; experiment: as above; assay type: cell-based; conditions: Staphylococcus aureus, FDA209; nutrient agar, 37° C., 20 hours
[22] = system: E. coli No. 29; experiment: as above; assay type: cell-based; conditions: Escherichia coli, nutrient agar, 37° C., 20 hours
[23] = system: Pro. vulgaris J-0001; experiment: as above; assay type: cell-based; conditions: Proteus vulgaris, J0001; nutrient agar, 37° C., 20 hours; read-out: MIC
[24] = system: Ps. aeruginosa IID 1210 (IFO 3455); experiment: as above; assay type: cell-based; conditions: Pseudomonas aeruginosa; nutrient agar, 37° C., 20 hours; read-out: MIC
[25] = system: Ps. aeruginosa IAM-1007; experiment: as above; assay type: cell-based; conditions: Pseudomonas aeruginosa, IAM1007; nutrient agar, 37° C., 20 hours; read-out: MIC
[26] = system: Pro. vulgaris OX19; experiment: as above; assay type: cell-based; conditions: Proteus vulgaris, nutrient agar, 37° C., 20 hours
[27] = system: Sta. aureus No. 26; experiment: as above; assay type: cell-based; conditions: Staphylococcus aureus, nutrient agar, 37° C., 20 hours
[28] = system: Ps. aeruginosa M-0148; experiment: as above; assay type: cell-based; conditions: Pseudomonas aeruginosa
[29] = system: Sta. epidermidis 109; experiment: as above; assay type: cell-based; conditions: Staphylococcus epidermidis, nutrient agar, 37° C., 20 hours
[30] = system: Sta. aureus ApO-1; experiment: as above; assay type: cell-based; conditions: Staphylococcus aureus, APO1; nutrient agar, 37° C., 20 hours
[31] = system: Sta. aureus N-0089; experiment: as above; assay type: cell-based; conditions: Staphylococcus aureus, N0089; nutrient agar, 37° C., 20 hours
[32] = system: Sta. aureus Smith S-424; experiment: as above; assay type: cell-based; conditions: Staphylococcus aureus, SMITHS424; nutrient agar, 37° C., 20 hours
[33] = system: Serra. marcescens I-0043; experiment: as above; assay type: cell-based; conditions: Serratia marcescens
[34] = system: B. anthracis No. 119; experiment: microbe, parasite or virus in culture; assay type: cell-based; conditions: Bacillus anthracis, NO.119, 20 h
[35] = system: Pro. mirabilis J-0010; experiment: Antibacterial activity (MIC), serial dilution method; assay type: cell-based; conditions: Proteus mirabilis, J0010; nutrient agar, 37° C., 20 hours; read-out: MIC
[36] = system: Sal. typhi 0-901-W; experiment: as above; assay type: cell-based; conditions: Salmonella enterica, 20 h
[37] = system: Sal. species D-0006; experiment: as above; assay type: cell-based; conditions: nutrient agar, 37° C., 20 hours
Method: (§2) Antimicrobial spectra of 1-N-(L-isoseryl)- and 1-N-(L-4-amino-2-hydroxybutyryl)-3',4'-dideoxy-3',4'-didehydrokanamycin B (1-AHP-eno-DKB and 1-AHB-eno-DKB) are shown in the following table together with that of 1-N-(L-4-amino-2-hydroxybutyryl)-3',4'-dideoxykanamycin B (1-AHB-DKB).
as §1

[38] = system: E. coli W 677(A-20684); experiment: as above; assay type: cell-based; conditions: Escherichia coli; nutrient agar, 37° C., 20 hours
Method: as §2, §1

[39] = system: Sal. species D-0001; experiment: as above; assay type: cell-based; conditions: nutrient agar, 37° C., 20 hours
Method: as §2, §1

[40] = system: Shigella dysenteriae Shigae; experiment: microbe, parasite or virus in culture; assay type: cell-based; conditions: 20 h
[41] = system: Ps. aeruginosa M-0002; experiment: Antibacterial activity (MIC), serial dilution method; assay type: cell-based; conditions: Pseudomonas aeruginosa
[42] = system: Sal. species D-0029; experiment: as above; assay type: cell-based; conditions: nutrient agar, 37° C., 20 hours
Method: as §2, §1

[43] = nutrient agar, 37° C., 20 hours, read-out: MIC

## NCC1C=CC(N)C(OC2C(N)CC(NC(=O)C(O)CN)C(OC3OC(CO)C(O)C(N)C3O)C2O)O1 (stereo not shown) [1-N-isoseryl-3',4'-dideoxy-3',4'-didehydrokanamycin B]
[1]
  antimicrobial activity: high antimicrobial activity

## NCC1CCC(N)C(OC2C(N)CC(NC(=O)C(O)CN)C(OC3OC(CO)C(O)C(N)C3O)C2O)O1 (stereo not shown) [1-N-isoseryl-3',4'-dideoxykanamycin B]
[2]
  activity against a wide variety of drug-resistant microbial strains: high activity

## NCCC(O)C(=O)NC1CC(N)C(OC2OC(CN)C=CC2N)C(O)C1OC1OC(CO)C(O)C(N)C1O [1-AHB-eno-DKB, 1-N-(L-4-amino-2-hydroxybutyryl)-3',4'-dideoxy-3',4'-didehydrokanamycin B]
[3]
  MIC: 3.13 µg/mL (≈ 5.68 µM)
[4]
  MIC: 6.25 µg/mL (≈ 11.4 µM)
[5]
  MIC: 3.13 µg/mL (≈ 5.68 µM)
[6]
  MIC: 3.13 µg/mL (≈ 5.68 µM)
[7]
  MIC: 12.5 µg/mL (≈ 22.7 µM)
[8]
  MIC: 1.56 µg/mL (≈ 2.83 µM)
[9]
  MIC: 6.25 µg/mL (≈ 11.4 µM)
[10]
  MIC: 6.25 µg/mL (≈ 11.4 µM)
[11]
  MIC: 3.13 µg/mL (≈ 5.68 µM)
[12]; [43]
  MIC: 1.56 µg/mL (≈ 2.83 µM)
[13]
  MIC: 1.56 µg/mL (≈ 2.83 µM)
[14]; [43]
  MIC: 1.56 µg/mL (≈ 2.83 µM)
[15]
  MIC: 0.2 µg/mL (≈ 0.363 µM)
[16]
  MIC: 1.56 µg/mL (≈ 2.83 µM)
[17]
  MIC: 6.25 µg/mL (≈ 11.4 µM)
[18]
  MIC: 50 µg/mL (≈ 90.8 µM)
[19]
  MIC: 0.1 µg/mL (≈ 0.182 µM)
[20]
  MIC: 3.13 µg/mL (≈ 5.68 µM)
[21]
  MIC: 0.1 µg/mL (≈ 0.182 µM)
[22]
  MIC: 3.13 µg/mL (≈ 5.68 µM)
[23]
  MIC: 1.56 µg/mL (≈ 2.83 µM)
[24]
  MIC: 6.25 µg/mL (≈ 11.4 µM)
[25]
  MIC: 1.56 µg/mL (≈ 2.83 µM)
[26]
  MIC: 3.13 µg/mL (≈ 5.68 µM)
[27]
  MIC: 0.78 µg/mL (≈ 1.42 µM)
[28]; M0148, nutrient agar, 37° C., 20 hours, read-out: MIC
  MIC: 3.13 µg/mL (≈ 5.68 µM)
[29]
  MIC: 0.2 µg/mL (≈ 0.363 µM)
[30]
  MIC: 0.39 µg/mL (≈ 0.708 µM)
[31]
  MIC: 0.2 µg/mL (≈ 0.363 µM)
[32]
  MIC: 0.2 µg/mL (≈ 0.363 µM)
[33]; I0043, nutrient agar, 37° C., 20 hours, read-out: MIC
  MIC: 1.56 µg/mL (≈ 2.83 µM)
[34]
  MIC: 0.1 µg/mL (≈ 0.182 µM)
[35]
  MIC: 1.56 µg/mL (≈ 2.83 µM)
[36]
  MIC: 0.78 µg/mL (≈ 1.42 µM)
[37]
  MIC: 1.56 µg/mL (≈ 2.83 µM)
[38]
  MIC: 0.78 µg/mL (≈ 1.42 µM)
[39]
  MIC: 3.13 µg/mL (≈ 5.68 µM)
[40]
  MIC: 0.78 µg/mL (≈ 1.42 µM)
[41]; M0002, nutrient agar, 37° C., 20 hours, read-out: MIC
  MIC: 3.13 µg/mL (≈ 5.68 µM)
[1]
  antimicrobial activity: high antimicrobial activity

## NCC1C=CC(N)C(OC2C(N)CC(NC(=O)C(O)CN)C(OC3OC(CO)C(O)C(N)C3O)C2O)O1 [1-AHP-eno-DKB, 1-N-(L-isoseryl)-3',4'-dideoxy-3',4'-didehydrokanamycin B]
[3]
  MIC: 3.13 µg/mL (≈ 5.83 µM)
[4]
  MIC: 3.13 µg/mL (≈ 5.83 µM)
[5]
  MIC: 6.25 µg/mL (≈ 11.6 µM)
[6]
  MIC: 3.13 µg/mL (≈ 5.83 µM)
[7]
  MIC: 6.25 µg/mL (≈ 11.6 µM)
[8]
  MIC: 3.13 µg/mL (≈ 5.83 µM)
[9]
  MIC: 3.13 µg/mL (≈ 5.83 µM)
[10]
  MIC: 3.13 µg/mL (≈ 5.83 µM)
[11]
  MIC: 3.13 µg/mL (≈ 5.83 µM)
[12]; 20 h
  MIC: 1.56 µg/mL (≈ 2.91 µM)
[13]
  MIC: 3.13 µg/mL (≈ 5.83 µM)
[14]; 20 h
  MIC: 1.56 µg/mL (≈ 2.91 µM)
[15]
  MIC: 0.2 µg/mL (≈ 0.373 µM)
[16]
  MIC: 3.13 µg/mL (≈ 5.83 µM)
[17]
  MIC: 25 µg/mL (≈ 46.6 µM)
[18]
  MIC: 50 µg/mL (≈ 93.2 µM)
[19]
  MIC: 0.2 µg/mL (≈ 0.373 µM)
[20]
  MIC: 6.25 µg/mL (≈ 11.6 µM)
[21]
  MIC: 0.1 µg/mL (≈ 0.186 µM)
[22]
  MIC: 6.25 µg/mL (≈ 11.6 µM)
[23]
  MIC: 3.13 µg/mL (≈ 5.83 µM)
[24]
  MIC: 3.13 µg/mL (≈ 5.83 µM)
[25]
  MIC: 0.78 µg/mL (≈ 1.45 µM)
[26]
  MIC: 3.13 µg/mL (≈ 5.83 µM)
[27]
  MIC: 0.39 µg/mL (≈ 0.727 µM)
[28]; M0148, 20 h
  MIC: 1.56 µg/mL (≈ 2.91 µM)
[29]
  MIC: 0.2 µg/mL (≈ 0.373 µM)
[30]
  MIC: 0.78 µg/mL (≈ 1.45 µM)
[31]
  MIC: 0.39 µg/mL (≈ 0.727 µM)
[32]
  MIC: 0.39 µg/mL (≈ 0.727 µM)
[33]; I0043, 20 h
  MIC: 1.56 µg/mL (≈ 2.91 µM)
[34]
  MIC: 0.2 µg/mL (≈ 0.373 µM)
[35]
  MIC: 3.13 µg/mL (≈ 5.83 µM)
[36]
  MIC: 1.56 µg/mL (≈ 2.91 µM)
[42]
  MIC: 6.25 µg/mL (≈ 11.6 µM)
[37]
  MIC: 6.25 µg/mL (≈ 11.6 µM)
[38]
  MIC: 0.78 µg/mL (≈ 1.45 µM)
[39]
  MIC: 6.25 µg/mL (≈ 11.6 µM)
[40]
  MIC: 1.56 µg/mL (≈ 2.91 µM)
[41]; M0002, 20 h
  MIC: 1.56 µg/mL (≈ 2.91 µM)
